From US20260250318A1, “COMPOSITIONS AND METHODS FOR CROSSING THE BLOOD BRAIN BARRIER” (VOYAGER THERAPEUTICS, INC., priority 2022, published 2026) come the findings set out here.

In assay [1] the target is T1, ALPL (Homo sapiens, UniProt P05186).
T1 sequence (P05186 18-501): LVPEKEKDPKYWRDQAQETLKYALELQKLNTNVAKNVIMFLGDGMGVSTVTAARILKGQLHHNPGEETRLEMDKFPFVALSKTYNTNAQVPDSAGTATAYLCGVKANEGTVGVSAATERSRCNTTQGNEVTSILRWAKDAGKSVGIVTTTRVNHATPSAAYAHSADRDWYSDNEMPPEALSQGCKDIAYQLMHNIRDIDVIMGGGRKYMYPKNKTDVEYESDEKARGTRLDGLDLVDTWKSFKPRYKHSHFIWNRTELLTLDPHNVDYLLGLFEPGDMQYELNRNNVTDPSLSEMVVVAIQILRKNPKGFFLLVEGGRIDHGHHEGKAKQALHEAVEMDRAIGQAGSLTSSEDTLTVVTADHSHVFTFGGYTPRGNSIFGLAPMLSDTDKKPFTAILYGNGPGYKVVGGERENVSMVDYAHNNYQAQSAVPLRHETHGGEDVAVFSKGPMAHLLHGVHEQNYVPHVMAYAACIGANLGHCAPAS
The experiment in a line: biochemical. The class given is binding. To be noted: for binding to ALPL by ELISA: ALPL coated on wells. The source says: Binding of the phospho-peptides of SEQ ID NO: 4512 and 4513 along with their non-phosphorylated counterparts, […] (SEQ ID NO: 4500) and […]

In assay [2] the target is T1, ALPL. The experiment in a line: SPR (Biacore 8K) binding of peptide ligands to ALPL. To be noted: peptides 0 to 50 μM. The method, then:
Binding and interaction between the peptides and the ALPL receptor were measured by Surface Plasmon Resonance (SPR) on a Biacore 8K instrument. The biotinylated peptides in Table 37 were captured on the streptavidin biosensor chip and 1000 nM of ALPL and buffer were passed over the peptides to monitor binding. […] His-tagged ALPL was then captured on the chip pre-immobilized with anti-His antibody, and 50 μM of the peptides in Table 37 or 250 nM of the AAV9 control capsid, the TTM-001 capsid variant (SEQ ID NO: 981), or the TTM-002 capsid variant (SEQ ID NO: 982) were flowed over the ALPL to check for binding. […] The longer peptides derived from TTM-002,
were also flowed over the his-tagged ALPL captured on the CM5 sensor chip pre-immobilized with anti-His antibody.
Binding and interaction between the phosho-peptides and the ALPL receptor were also measured by SPR. The biotinylated and phosphorylated peptides in Table 38 were captured on the streptavidin biosensor chip along with their non-phosphorylated counterparts, […] (SEQ ID NO: 4500) and […] (SEQ ID NO: 4503). ALPL and buffer were passed over the peptides to monitor binding. The concentration of ALPL used ranged from 0 to 500 nM (0 nM, 125 nM, 250 nM, and 500 nM).
In a second experiment, his-tagged ALPL was first captured on a CM5 sensor chip pre-immobilized with anti-His antibody. The phosphorylated peptides in Table 38 and their non-phosphorylated counterparts, […] (SEQ ID NO: 4500) and […] (SEQ ID NO: 4503) and buffer were flowed over the ALPL protein to monitor binding.

In another assay the target is T2, His-tagged ALPL (Homo sapiens, UniProt P05186).
T2 sequence (P05186 18-501): T1 sequence (P05186 18-501)
The experiment in a line: Bio Layer Interferometry (BLI)/Octet binding of peptides to ALPL. To be noted: for binding to ALPL by BLI/Octet: ALPL 1.56 to 100 nM. The text has this:
Binding of the phospho-peptides of SEQ ID NO: 4512 and SEQ ID NO: 4513 to ALPL was also investigated using Bio Layer Interferometry (BLI)/Octet.

Assay [3] addresses human ALPL (soluble protein used in the ELISA and SPR of Example 14) (human) (UniProt P05186). The experiment in a line: SPR (Biacore), antibody captured on the chip, 1.6 to 1000 nM of human ALPL flowed over.

Non-standard residues stand in square brackets, D forms with d. Residues, ends and D or L forms follow the SMILES beside them. *: point of attachment. Biotin = O=C1N[C@H]2[C@H](CS[C@H]2CCCCC(=O)*)N1; pS = N[C@@H](COP(=O)(O)O)C(=O)O

Consider `CC[C@H](C)[C@H](NC(=O)[C@@H](NC(=O)[C@H](CCCCN)NC(=O)[C@H](CO)NC(=O)CNC(=O)[C@H](CO)NC(=O)CNC(=O)CCCC[C@@H]1SC[C@@H]2NC(=O)N[C@@H]21)[C@@H](C)O)C(=O)N[C@@H](CC(N)=O)C(=O)NCC(=O)N[C@@H](Cc1c[nH]cn1)C(=O)N[C@@H](CC(=O)O)C(=O)N[C@@H](COP(=O)(O)O)C(=O)N1CCC[C@H]1C(=O)N[C@@H](Cc1c[nH]cn1)C(=O)N[C@@H](CCCCN)C(=O)N[C@@H](CO)C(=O)NCC(=O)N[C@@H](CCC(N)=O)C(=O)N[C@@H](CC(N)=O)C(=O)N[C@@H](CCC(N)=O)C(N)=O` [SEQ ID NO: 4513] (Biotin-GSGSKTINGHD[pS]PHKSGQNQ-NH2), for which, at ALPL [1], the EC50 is 4290 nM and the “binding to ALPL by ELISA” value is given as “dose-dependent binding to ALPL”. Besides, the “binding to ALPL by SPR, his-tagged ALPL captured on chip” value at ALPL [2] is “low signal with dose dependency”. In addition, on His-tagged ALPL, the Kd amounted to 20.7 nM, the dissociation rate constant (koff) was found to be 0.00067 s⁻¹, the kon is 32000 M⁻¹ s⁻¹ and the “binding to ALPL by BLI/Octet” value is on record as “demonstrated binding to ALPL”. The “binding to ALPL at a pH of 5.5” value on His-tagged ALPL (pH 5.5) is “no binding was observed”.

As for `NCCCC[C@H](NC(=O)[C@H](Cc1c[nH]cn1)NC(=O)[C@@H]1CCCN1C(=O)[C@H](COP(=O)(O)O)NC(=O)[C@H](CC(=O)O)NC(=O)[C@H](Cc1c[nH]cn1)NC(=O)CNC(=O)[C@H](CC(N)=O)NC(=O)[C@H](CO)NC(=O)CNC(=O)[C@H](CO)NC(=O)CNC(=O)CCCC[C@@H]1SC[C@@H]2NC(=O)N[C@@H]21)C(=O)N[C@@H](CO)C(=O)NCC(N)=O` [SEQ ID NO: 4512] (Biotin-GSGSNGHD[pS]PHKSG-NH2), at ALPL [1], the EC50 was 763 nM and the “binding to ALPL by ELISA” value was “dose-dependent binding to ALPL”. Also, on ALPL [2], the “binding to ALPL by SPR, his-tagged ALPL captured on chip” value was “low signal with dose dependency”. At His-tagged ALPL, the affinity, expressed as Kd, was 112 nM; the koff was 0.0026 s⁻¹; the kon was found to be 23000 M⁻¹ s⁻¹; the “binding to ALPL by BLI/Octet” value was “demonstrated binding to ALPL”.

In assay [3], “Human Alkaline Phosphatase/ALPL Antibody, clone B4-78 (MAB1448-SP)” had a Kd of 215 nM, a koff of 0.0015 s⁻¹ and a kon of 6800 M⁻¹ s⁻¹.
